Test results published in US20210220392A1, “MOLECULAR HYDROGEN-CONTAINING COMPOSITION FOR PREVENTION AND/OR IMPROVEMENT OF INFLAMMATORY BOWEL DISEASE” (MiZ Company Limited, priority 2020, published 2021).

What was measured:
[1] = room temperature, normal pressure; also printed as 1.6 mg/L; cited from earlier work
ulcerative colitis = experiment: A case of ulcerative colitis improved by hydrogen inhalation (single patient case report); assay type: in vivo, human
Method: From around January 2018, the patient was taking a therapeutic agent for ulcerative colitis but was distressed because the disease was not cured with cyclic improvement and worsening. Additionally, the patient became depressed and gloomy, suffering insomnia and weight loss, because of the prolonged symptoms of ulcerative colitis. […] The patient drank two 500 mL PET bottles of hydrogen water per day.

[2] = known; versus H2; cited from earlier work
[3] = around June 9, six days after initiation of hydrogen gas inhalation plus hydrogen water

SMILES | concentration of hydrogen dissolved in water [1] | general condition (ulcerative colitis; [3]) | sleep condition (ulcerative colitis; [3]) | body weight (ulcerative colitis; by Aug. 22, 2019) | hemorrhage (ulcerative colitis; by Aug. 22, 2019 (end of inhalation therapy)) | hemorrhage (ulcerative colitis; by Jul. 31, 2019) | frequency of defecation and patient's vigor (ulcerative colitis; by Jun. 17, 2019) | stool consistency (had been watery) (ulcerative colitis; by Jun. 17, 2019) | hemorrhage during defecation (ulcerative colitis; by Jun. 17, 2019 (inhalation started Jun. 3, 2019)) | endoscopy: hemorrhage in the rectum (had been filled with blood) (ulcerative colitis; endoscopy on Sep. 25, 2019) | endoscopy: wall of the small and large intestines (ulcerative colitis; endoscopy on Sep. 25, 2019) | endoscopy: several polyps found in the stomach (ulcerative colitis; endoscopy on Sep. 25, 2019, inhalation of hydrogen gas and drinking of hydrogen water) | volume of melena during defecation (ulcerative colitis; person, ulcerative colitis, around June 9, six days after initiation of hydrogen gas inhalation (approx. 5.0%, 1-3 h/day) plus hydrogen water 7 ppm, two 500 mL bottles/day) | superoxide eliminating effect compared with H2 [2]
[HH] [hydrogen gas, molecular hydrogen] | approximately 1.6 ppm | recovered | improved | increased to the healthy weight before the onset of the disease | no hemorrhage was found | no hemorrhage was found except that blood was attached to the stool only on the day after the patient had drunk alcohol | returned to the levels before the onset of the disease | became solid | further decreased | no hemorrhage in the rectum | recovered completely | disappeared | began to decrease | –
[2H][2H] [D2, deuterium] | – | – | – | – | – | – | – | – | – | – | – | – | – | stronger
